Consider 10 compounds from PubChem BioAssay (NCI).

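Each compound was tested at five concentrations against cells in 96-well plates for 48 hours. GI50: concentration for 50% inhibition of growth. TGI marks complete inhibition of growth.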 Some results are limits rather than exact numbers.

Test systems include COLO 205 colon; PC-3 prostate; KM12 colon; HOP-92 NSCLC; OVCAR-8 ovarian; HCT-116 colon; NCI-H226 lung; SK-OV-3 ovarian; A549 NSCLC; HOP-62 NSCLC.
Assay in all cases: NCI tumour cell line growth inhibition, 48 h

On to `CCOC(=O)c1c(NC(=O)c2cccc(C(F)(F)F)c2)sc2c(CN(C)C)c(O)ccc12`, for which the GI50 was 2.1 µM with COLO 205 colon; 5.45 µM with PC-3 prostate; 4.92 µM with KM12 colon; 2.76 µM with HOP-92 NSCLC; 6.12 µM in the assay with OVCAR-8 ovarian; 3.14 µM in the assay on HCT-116 colon. For the same compound, the GI50 with NCI-H226 lung was 16 µM; in the assay with SK-OV-3 ovarian, 19.1 µM; with A549 NSCLC it was 3.3 µM; with HOP-62 NSCLC it was 13.8 µM. In addition, the TGI in the assay with COLO 205 colon came to 4.66 µM; in the assay on PC-3 prostate, 18.1 µM; in the assay on KM12 colon it was 17.9 µM; in the assay on HOP-92 NSCLC, 15.2 µM; with OVCAR-8 ovarian, 18.8 µM; in the assay on HCT-116 colon it was 10.3 µM. In addition, the TGI in the assay on NCI-H226 lung is 36.2 µM; in the assay on SK-OV-3 ovarian, 41.8 µM; with A549 NSCLC, 12.7 µM; in the assay with HOP-62 NSCLC, 27.7 µM.

As to `N=C(N)c1ccc2nc(-c3cc(CC(=O)N[C@@H](CC(=O)O)C(=O)O)cc(-c4cc(S(N)(=O)=O)ccc4O)c3O)[nH]c2c1`, the GI50 in the assay on COLO 205 colon, in the assay on PC-3 prostate, with KM12 colon, with HOP-92 NSCLC, in the assay on OVCAR-8 ovarian and with HCT-116 colon was > 100 µM in each case. The GI50 in the assay with NCI-H226 lung, with SK-OV-3 ovarian, in the assay with A549 NSCLC and with HOP-62 NSCLC was > 100 µM throughout. The TGI with COLO 205 colon, in the assay with PC-3 prostate, in the assay on KM12 colon, in the assay on HOP-92 NSCLC, with OVCAR-8 ovarian and in the assay on HCT-116 colon was > 100 µM in each case. Besides, the TGI in the assay on NCI-H226 lung, in the assay on SK-OV-3 ovarian, with A549 NSCLC and in the assay with HOP-62 NSCLC was > 100 µM throughout.

Consider `Cc1nc2sc3c(c2c(=O)[nH]1)CCCC3`, for which the TGI in the assay on COLO 205 colon, with PC-3 prostate, in the assay with KM12 colon, with HOP-92 NSCLC, in the assay on OVCAR-8 ovarian and with HCT-116 colon was > 100 µM in each case. Further, the TGI with NCI-H226 lung, with SK-OV-3 ovarian, in the assay on A549 NSCLC and in the assay on HOP-62 NSCLC was > 100 µM each time.

Turning to `O=CN1CCN(CC(O)CN2CCCCC2)CC1` (centres undefined), the TGI with COLO 205 colon, with PC-3 prostate, with KM12 colon, in the assay with OVCAR-8 ovarian, in the assay with HCT-116 colon and in the assay with NCI-H226 lung was > 100 µM throughout. Further, the TGI in the assay on SK-OV-3 ovarian, in the assay with A549 NSCLC and in the assay with HOP-62 NSCLC was > 100 µM in each case.

For the compound `CCOc1ccncc1[N+](=O)[O-]`, the TGI with PC-3 prostate, in the assay on KM12 colon, in the assay with OVCAR-8 ovarian, in the assay on HCT-116 colon, in the assay with NCI-H226 lung and in the assay with SK-OV-3 ovarian was > 100 µM each time. Besides, the TGI in the assay on A549 NSCLC and with HOP-62 NSCLC was > 100 µM throughout.

For the compound `Cc1nc(-[n+]2nc(-c3ccncc3)nn2-c2ccccc2)sc1C`, the TGI in the assay on COLO 205 colon is > 100 µM; in the assay with PC-3 prostate, > 100 µM; in the assay on KM12 colon, > 100 µM; with OVCAR-8 ovarian it was > 100 µM; in the assay with HCT-116 colon it was > 100 µM; in the assay with NCI-H226 lung, 95.9 µM. Further, the TGI is 67.5 µM with SK-OV-3 ovarian, > 100 µM with A549 NSCLC and 31.9 µM with HOP-62 NSCLC.

Consider `O=C1NC(=O)C(c2cccc([N+](=O)[O-])c2)=C1Nc1cc(Cl)c(O)c(Cl)c1`, for which the GI50 in the assay with COLO 205 colon is > 25 µM; in the assay on PC-3 prostate it was > 25 µM; in the assay with KM12 colon, > 25 µM; in the assay on OVCAR-8 ovarian, > 25 µM; in the assay with HCT-116 colon, > 25 µM; in the assay on SK-OV-3 ovarian it was 12 µM. Moreover, the GI50 with A549 NSCLC and in the assay on HOP-62 NSCLC was > 25 µM throughout. Further, the TGI with COLO 205 colon, in the assay with PC-3 prostate, with KM12 colon, with OVCAR-8 ovarian, with HCT-116 colon and in the assay on SK-OV-3 ovarian was > 25 µM throughout. Also, the TGI in the assay on A549 NSCLC and in the assay on HOP-62 NSCLC was > 25 µM each time.

Consider `COc1cc2c3c(n(CCCOC(=O)C(F)(F)F)c(=O)c2cc1OC)-c1cc2c(cc1C3=O)OCO2`, for which the GI50 in the assay with COLO 205 colon is 0.519 µM; in the assay on PC-3 prostate, 0.0532 µM; in the assay with KM12 colon, 0.0296 µM; in the assay with HOP-92 NSCLC, 0.122 µM; with HCT-116 colon, < 0.0158 µM; in the assay on NCI-H226 lung, < 0.0151 µM. Further, the GI50 in the assay on HOP-62 NSCLC was < 0.01 µM. The TGI is > 100 µM in the assay with COLO 205 colon; > 100 µM with PC-3 prostate; 14.6 µM in the assay with KM12 colon; 33.4 µM in the assay on HOP-92 NSCLC; 0.664 µM with OVCAR-8 ovarian; 0.161 µM with NCI-H226 lung. Besides, the TGI was > 100 µM with SK-OV-3 ovarian and < 0.0329 µM with HOP-62 NSCLC.

In the case of `COc1ccc(O)c(C(=O)c2ccc(C(=O)N[C@H]3CCCNC[C@@H]3NC(=O)c3ccncc3)cc2)c1F`, the GI50 with COLO 205 colon is > 25 µM; in the assay with PC-3 prostate, > 21.6 µM; with KM12 colon it was 3.1 µM; in the assay with OVCAR-8 ovarian, 5.5 µM; in the assay on HCT-116 colon, 12.3 µM; with NCI-H226 lung, > 25 µM. Further, the GI50 in the assay with SK-OV-3 ovarian is 5.57 µM; in the assay on A549 NSCLC, 16.3 µM; in the assay with HOP-62 NSCLC, 4.39 µM. Also, the TGI is > 25 µM with COLO 205 colon; > 25 µM in the assay with PC-3 prostate; > 16.5 µM with KM12 colon; > 21.3 µM with OVCAR-8 ovarian; > 25 µM with HCT-116 colon; > 25 µM with NCI-H226 lung. Further, the TGI with SK-OV-3 ovarian was > 25 µM; in the assay with A549 NSCLC, > 25 µM; in the assay on HOP-62 NSCLC, > 21.1 µM.

For `C/C(CC(=O)Nc1cccc(Cl)c1C)=N\NC(=O)c1ccncc1`, the TGI in the assay on COLO 205 colon, in the assay on KM12 colon, in the assay with HOP-92 NSCLC, in the assay on OVCAR-8 ovarian, in the assay on HCT-116 colon and with NCI-H226 lung was > 100 µM throughout. The TGI with SK-OV-3 ovarian, in the assay on A549 NSCLC and with HOP-62 NSCLC was > 100 µM each time.
